Experiment [1] deals with PMA-induced mouse ear edema. The experiment can be described thus: Inhibition of PMA-induced inflammation (edema) of the mouse ear. The class given is in vivo. The conditions noted are these: administered topically. The protocol: A test compound is topically applied in acetone to the inside pinnae of the ears of mice in a solution containing the edema-causing irritant, phorbol 12-myristate 13-acetate (PMA). PMA alone (2 μg/ear) or in combination with the test compound is applied to left ears (5 mice per treatment group) and acetone is applied to all right ears. After 3 hour 20 minute incubation, the mice are euthanized, the ears are removed, and bores are taken and weighed. Edema is measured by subtracting the weight of the right ear (acetone control) from the weight of the left ear (treated). Results are recorded as % decreases (inhibition) or % increase (potentiation) in edema relative to the PMA control group edema. Test compounds are screened at 50 or 25 μg/ear.
This signaling mechanism may be coupled to phagosome formation. The endogenous production of eicosanoids and their role in phagosome formation may be evaluated by using […] as pharmacological probes and analyzing arachidonic acid products by conventional means.

Experiment [2] relates to prostaglandin E2 production in zymosan-stimulated murine peritoneal macrophages. Nature of the experiment: Prostaglandin E2 production in zymosan-stimulated murine peritoneal macrophages. In kind it is cell-based. The conditions noted are these: read-out: IC50, inhibition of prostaglandin E2 production.
The subject of experiment [3] is leukotriene C4 production in zymosan-stimulated murine peritoneal macrophages. The experiment can be described thus: Leukotriene C4 production in zymosan-stimulated murine peritoneal macrophages. The conditions noted are these: read-out: IC50, inhibition of leukotriene C4 production. The class given is cell-based.
The subject of a further experiment is Tetrahymena thermophila. Nature of the experiment: Tetrahymena thermophila phagocytic activity (India ink food vacuole formation). The class given is cell-based. The conditions noted are these: read-out: IC50, inhibition of phagocytic activity. As to the method:
In Tetrahymena thermophila, PsA and elisabethadione were potent inhibitors of phagocytic activity with IC50 of 0.4 and 0.1 μM, respectively. A test compound may be assayed as follows. Log-phase Tetrahymena thermophila cultures are grown in 2% proteose peptone, 0.1% glucose at 25° C. A volume comprising 1×10^7 cells are centrifuged at 450 g for 5 minutes. The pellet is washed and resuspended in 3.15 ml of 50 mM TRIS-HCl buffer at pH 7.7. The test compound is prepared at a desired concentration in 0.4 ml volumes. For control samples, 0.4 ml of buffer is used. 0.45 ml of diluted India ink (1:25, v:v) is added to each drug preparation. At t=0, the drug/ink mixture is added to the Tetrahymena cells, and at t=10 min., […] samples of cell suspension are removed and fixed in 10% formaldehyde. At least 100 random cells from each sample are then examined in a light microscope. Phagocytic activity is assessed by calculating the ratio of cells with food vacuoles compared to the cells with no food vacuoles.

Molecules are shown by their SMILES.

As for `CC(C)=C[C@H]1C[C@H](C)[C@H]2CC[C@H](C)c3c(O)c(O[C@@H]4O[C@@H](C)[C@@H](O)[C@@H](O)[C@@H]4O)c(C)c1c32` [PsE, Pseudopterosin E], the “ED50, reducing PMA-induced mouse ear edema” value in experiment [1] turned out to be 38 μg/ear.
By IC50 is commonly meant the concentration that gives 50% inhibition. `CC(C)=C[C@H]1C[C@H](C)[C@H]2CC[C@H](C)c3c(O[C@@H]4OC[C@@H](O)[C@H](O)[C@H]4O)c(O)c(C)c1c32` [PsA, Pseudopterosin A]: in experiment [1], the “ED50, reducing PMA-induced mouse ear edema” value amounted to 8 μg/ear. Further, the IC50 in experiment [2] is 4000 nM; in experiment [3], 1000 nM; with Tetrahymena thermophila, 400 nM.
Regarding `CC(C)=CCC[C@H](C)[C@H]1CC[C@H](C)C2=C1C(=O)C(C)=C(O)C2=O` [elisabethadione], the half-inhibitory concentration (IC50) in the experiment on Tetrahymena thermophila was 100 nM.
